The values below come from patent US20220056018A1, “SREBP INHIBITORS COMPRISING A THIOPHENE CENTRAL RING” (Capulus Therapeutics, LLC, priority 2019, published 2022).

Series [1] can be described thus: Stability in human liver microsomes. It is filed as in vitro ADME. The settings on record: 37° C., NADPH. Summed up:
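Compound from a 100 μM working solution was preincubated 10 min at 37 °C with human liver microsomes (added at 3.33 mg/mL) in 100 mM potassium phosphate. Incubation then ran 60 min at 37 °C with NADPH (2.85 mM cofactor solution), alongside a no-cofactor 60-min control and a 0-min sample. Parent compound was quantified by LC-MS/MS after acetonitrile quench for half-life.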
(In general: Liver microsomes are a subcellular fraction often used to study metabolism.)

Series [2] in a line: Stability in mouse liver microsomes. It is filed as in vitro ADME. Summed up: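 Mouse liver microsomes, run by the same procedure as for human microsomes: 100 μM working solution pre-incubated with microsomes in 100 mM potassium phosphate buffer for 10 min at 37° C, then incubated 60 min at 37° C with NADPH cofactor, plus a no-cofactor control. Remaining compound quantified by LC-MS/MS.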

The test system of series [3] is SREBP. Kind of series: Reporter Screening Assay (SRE-luciferase reporter, HepG2). Type of series: cell-based. The settings on record: Homo sapiens; SRE-luciferase reporter HepG2 cells, 24 hours, 0.01 uM to 10 uM; read-out: I: Reporter Screening Assay (Ave EC50 (nM)). Put shortly:
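HepG2 SREBP reporter cells carrying an SRE-luciferase construct were serum-washed, then treated for 24 h at 37° C with compounds (0.01 uM to 10 uM) in phenol-free medium with varying FBS levels. Total luminescence was read after a 30 min incubation with luciferase substrate.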
(A reporter such as luciferase makes a cellular process visible.)

SMILES strings stand for the structures.

What is called EC50 is the concentration at which the effect is half-maximal. With `CC(C)(CO)c1cc(-c2csc(-c3ccc(NS(C)(=O)=O)cc3Cl)c2)ccn1` [Compound I-8909, N-(3-chloro-4-(4-(2-(1-hydroxy-2-methylpropan-2-yl)pyridin-4-yl)thiophen-2-yl)phenyl)methanesulfonamide], the “percent of compound remaining after 60 min in human liver microsomes” value (from here on “percent of compound remaining”) in series [1] is listed as “++ (30.1-60 = ++)”. The “percent parent remaining after 60 min in liver microsomes” value (“percent parent remaining after 60 min” below) in series [2] was “+++ (>60.1 = +++)”. Moreover, in series [3], the EC50 was less than 249 nM.

As to `CC(C)(O)Cc1cc(-c2csc(-c3ccc(NS(C)(=O)=O)cc3Cl)c2)ccn1` [Compound I-9004, N-(3-chloro-4-(4-(2-(2-hydroxy-2-methylpropyl)pyridin-4-yl)thiophen-2-yl)phenyl)methanesulfonamide], the “percent of compound remaining” value in series [1] is recorded as “+++ (>60.1 = +++)”. Further, the “percent parent remaining after 60 min” value in series [2] is “+++ (>60.1 = +++)”. Besides, the EC50 in series [3] was less than 249 nM.

Take `CS(=O)(=O)Nc1ccc(-c2cc(-c3ccnc4c3OCCO4)cs2)c(Cl)c1` [Compound I-9017, N-(3-chloro-4-(4-(2,3-dihydro-[1,4]dioxino[2,3-b]pyridin-8-yl)thiophen-2-yl)phenyl)methanesulfonamide]: the “percent of compound remaining” value in series [1] is recorded as “+++ (>60.1 = +++)”. The “percent parent remaining after 60 min” value in series [2] is listed as “+++ (>60.1 = +++)”. Also, the EC50 in series [3] is less than 249 nM.
